Results taken from publication PMC11928584, “H105A peptide eye drops promote photoreceptor survival in murine and human models of retinal degeneration” (Communications Medicine, 2025).
Several values for one entry are separate records, joined by “and”; a condition that tells them apart may be missing. Equal values may be shown once. Where a SMILES comes first, the peptide text is derived from it.

Test system: human iPSC-derived retinal organoids exposed to CSE
Assay: TUNEL staining of retinal organoid sections
Type: cell-based
Conditions: Figure 8f; CSE + peptide; individual values, n=5
Description: Human iPSCs were differentiated into retinal organoids (ROs) following the protocol by Zhong et al.[41]. Briefly, on Day 0, hiPSC colonies were dissociated with dispase and grown in a suspension to form embryoid bodies, and slowly transitioned to neural induction media (DMEM/F12 (1:1), 1% N2 supplement (Invitrogen), 1 x minimum essential media-nonessential amino acids (NEAAs), 2 µg/ml heparin (Sigma)). On Day 7, EBs were seeded on Matrigel coated plates and maintained in neural induction media. On Day 16, the media was switched to the retinal differentiation medium (DMEM/F12 (3:1), 2% B27 (without vitamin A, Invitrogen), 1x NEAA and 1% antibiotic–antimycotic (Gibco)). Retinal domains were identified and lifted manually with tungsten needles between Day 21 and Day 26 under a phase contrast microscope. On day 30, the culture medium was transitioned to DMEM/F12 (3:1) with 2% B27, 1x NEAA, 1% antibiotic–antimycotic, 10% fetal bovine serum (FBS; Gibco), […] Taurine (Sigma), and 2 mM GlutaMAX (Invitrogen). Additionally, 1 µM retinoic acid supplement was introduced daily starting from day 63. On day 91, the medium was modified to DMEM/F12 (1:1) supplemented with 1% N2, 1 x NEAAs, 1% antibiotic–antimycotic, 10% FBS, […] Taurine and 2 mM GlutaMAX, and the concentration of retinoic acid supplementation was reduced to 0.5 µM for the remainder of the culture period. The use of hiPSCs in this study conforms to the University of Colorado Institutional Biosafety Committee standards. […]
D180 ROs were treated with each of the 5 experimental conditions, as described above (n = 5 for each condition), washed with PBS three times, and fixed with 4% paraformaldehyde for 10 min at room temperature. […] Fluorescence images were acquired with a Nikon C2 Confocal Microscope A1 (Minato City, Tokyo, Japan) and stitched together using Nikon Elements Software. Images were analysed with Fiji. The relative area of positive immunostaining was calculated as a percentage of total retinal area. […]

CC[C@H](C)[C@H](NC(=O)[C@H](CC(C)C)NC(=O)[C@H](CC(=O)O)NC(=O)[C@H](Cc1ccc(O)cc1)NC(=O)[C@H](Cc1ccc(O)cc1)NC(=O)[C@H](CC(C)C)NC(=O)[C@H](C)NC(=O)[C@H](CCCNC(=N)N)NC(=O)[C@H](Cc1c[nH]cn1)NC(=O)[C@@H](NC(=O)[C@@H](NC(=O)[C@H](CO)NC(=O)[C@H](CCC(=O)O)NC(=O)[C@@H](NC(=O)[C@H](C)NC(=O)[C@@H](N)CCC(N)=O)[C@@H](C)O)[C@@H](C)CC)[C@@H](C)CC)C(=O)N[C@@H](CO)C(=O)O [R99A] (H-QATESIIHRALYYDLIS-OH)
Relative TUNEL(+) area: 4.87 and 4.90 and 3.81 and 6.35 and 6.42
